# Tests used:
# Assay type in all cases: in vivo
# [1] = test system: barnyardgrass (Echinochloa crus-galli); assay: Test G Pre-Emergence Protocol; conditions: Echinochloa crus-galli, pre-emergence, 312 h, evaluated after 13 days; for pest or weed control at 15.625 g/ha: 15.625 g ai/ha, read-out: Barnyard grass damage rating (100=total damage to plant; 0=no damage to plant); for pest or weed control at 62.5 g/ha: 62.5 g ai/ha, 100=total damage to plant, 0=no damage to plant, read-out: plant damage rating, Barnyardgrass; for pest or weed control at 250 g/ha: 250 g ai/ha, read-out: Barnyardgrass damage rating (100=total damage to plant; 0=no damage to plant)
# Summary of the method: (§1)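 Scores are visual damage ratings from 0 (no damage) to 100 (total plant kill), taken 13 days after treatment. Compound was sprayed one day post-sowing at 15.625, 62.5 or 250 g/ha in 50:50 acetone/water with 0.5% Tween 20.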
# corn (Zea mays) [2] = assay: Test G Pre-Emergence Protocol; conditions: Zea mays, pre-emergence, 312 h, evaluated after 13 days; for plant injury at 15.625 g/ha: 15.625 g ai/ha; for plant injury at 15.625 g/ha / plant injury at 250 g/ha: read-out: Corn damage rating (100=total damage to plant; 0=no damage to plant); for plant injury at 62.5 g/ha: 62.5 g ai/ha, 100=total damage to plant, 0=no damage to plant, read-out: plant damage rating, Corn; for plant injury at 250 g/ha: 250 g ai/ha
# Summary of the method: as §1
# [3] = test system: giant foxtail (Setaria faberi); assay: Test G Pre-Emergence Protocol; conditions: Setaria faberi, pre-emergence, 312 h, evaluated after 13 days; for pest or weed control at 15.625 g/ha: 15.625 g ai/ha; for pest or weed control at 15.625 g/ha / pest or weed control at 250 g/ha: read-out: Foxtail, Giant damage rating (100=total damage to plant; 0=no damage to plant); for pest or weed control at 62.5 g/ha: 62.5 g ai/ha, 100=total damage to plant, 0=no damage to plant, read-out: plant damage rating, Foxtail, Giant; for pest or weed control at 250 g/ha: 250 g ai/ha
# Summary of the method: as §1
# [4] = test system: ivy-leaved morning glory (Ipomoea hederacea); assay: Test G Pre-Emergence Protocol; conditions: Ipomoea, pre-emergence, 312 h, evaluated after 13 days; for pest or weed control at 15.625 g/ha: 15.625 g ai/ha, read-out: Morning-glory, Ivy-leaved damage rating (100=total damage to plant; 0=no damage to plant); for pest or weed control at 62.5 g/ha: 62.5 g ai/ha, 100=total damage to plant, 0=no damage to plant, read-out: plant damage rating, Morningglory, Ivy-leaved; for pest or weed control at 250 g/ha: 250 g ai/ha, read-out: Morningglory, Ivy-leaved damage rating (100=total damage to plant; 0=no damage to plant)
# Summary of the method: as §1
# [5] = test system: redroot pigweed (Amaranthus retroflexus); assay: Test G Pre-Emergence Protocol; conditions: Amaranthus retroflexus, pre-emergence, 312 h, evaluated after 13 days; for pest or weed control at 15.625 g/ha: 15.625 g ai/ha; for pest or weed control at 15.625 g/ha / pest or weed control at 250 g/ha: read-out: Pigweed, Redroot damage rating (100=total damage to plant; 0=no damage to plant); for pest or weed control at 62.5 g/ha: 62.5 g ai/ha, 100=total damage to plant, 0=no damage to plant, read-out: plant damage rating, Pigweed, Redroot; for pest or weed control at 250 g/ha: 250 g ai/ha
# Summary of the method: as §1
# [6] = test system: velvetleaf (Abutilon theophrasti); assay: Test G Pre-Emergence Protocol; conditions: Abutilon theophrasti, pre-emergence, 312 h, evaluated after 13 days; for pest or weed control at 15.625 g/ha: 15.625 g ai/ha; for pest or weed control at 15.625 g/ha / pest or weed control at 250 g/ha: read-out: Velvetleaf damage rating (100=total damage to plant; 0=no damage to plant); for pest or weed control at 62.5 g/ha: 62.5 g ai/ha, 100=total damage to plant, 0=no damage to plant, read-out: plant damage rating, Velvetleaf; for pest or weed control at 250 g/ha: 250 g ai/ha
# Summary of the method: as §1
# [7] = test system: barnyardgrass (Echinochloa crus-galli); assay: Test G Post-Emergence Protocol; conditions: Echinochloa crus-galli, post-emergence, 312 h; for pest or weed control at 15.625 g/ha: 15.625 g ai/ha, evaluated after 13 days (100=total damage to plant; 0=no damage to plant), read-out: Barnyardgrass damage rating; for pest or weed control at 62.5 g/ha: 62.5 g ai/ha, read-out: Barnyardgrass damage rating (100=total damage to plant; 0=no damage to plant); for pest or weed control at 62.5 g/ha / pest or weed control at 250 g/ha: evaluated after 13 days; for pest or weed control at 250 g/ha: 250 g ai/ha, read-out: damage to plant, Barnyardgrass (100=total damage to plant; 0=no damage to plant)
# Summary of the method: (§2)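 Foliar application was made 8 days after sowing, using an aqueous spray of the active in acetone/water (50:50) with 0.5% Tween 20, at doses of 15.625, 62.5 or 250 g/ha. Injury was assessed 13 days later, where 100 meant the plant was fully damaged.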
# corn (Zea mays) [8] = assay: Test G Post-Emergence Protocol; conditions: Zea mays, post-emergence, 312 h; for plant injury at 15.625 g/ha: 15.625 g ai/ha, evaluated after 13 days (100=total damage to plant; 0=no damage to plant), read-out: Corn damage rating; for plant injury at 62.5 g/ha: 62.5 g ai/ha, read-out: Corn damage rating (100=total damage to plant; 0=no damage to plant); for plant injury at 62.5 g/ha / plant injury at 250 g/ha: evaluated after 13 days; for plant injury at 250 g/ha: 250 g ai/ha, read-out: damage to plant, Corn (100=total damage to plant; 0=no damage to plant)
# Summary of the method: as §2
# [9] = test system: giant foxtail (Setaria faberi); assay: Test G Post-Emergence Protocol; conditions: Setaria faberi, post-emergence, 312 h; for pest or weed control at 15.625 g/ha: 15.625 g ai/ha, evaluated after 13 days (100=total damage to plant; 0=no damage to plant), read-out: Foxtail, Giant damage rating; for pest or weed control at 62.5 g/ha: 62.5 g ai/ha, read-out: Foxtail, Giant damage rating (100=total damage to plant; 0=no damage to plant); for pest or weed control at 62.5 g/ha / pest or weed control at 250 g/ha: evaluated after 13 days; for pest or weed control at 250 g/ha: 250 g ai/ha, read-out: damage to plant, Foxtail, Giant (100=total damage to plant; 0=no damage to plant)
# Summary of the method: as §2
# [10] = test system: ivy-leaved morning glory (Ipomoea hederacea); assay: Test G Post-Emergence Protocol; conditions: Ipomoea, post-emergence, 312 h; for pest or weed control at 15.625 g/ha: 15.625 g ai/ha, evaluated after 13 days (100=total damage to plant; 0=no damage to plant), read-out: Morningglory, Ivy-leaved damage rating; for pest or weed control at 62.5 g/ha: 62.5 g ai/ha, read-out: Morningglory, Ivy-leaved damage rating (100=total damage to plant; 0=no damage to plant); for pest or weed control at 62.5 g/ha / pest or weed control at 250 g/ha: evaluated after 13 days; for pest or weed control at 250 g/ha: 250 g ai/ha, read-out: damage to plant, Morningglory, Ivy-leaved (100=total damage to plant; 0=no damage to plant)
# Summary of the method: as §2
# [11] = test system: redroot pigweed (Amaranthus retroflexus); assay: Test G Post-Emergence Protocol; conditions: Amaranthus retroflexus, post-emergence, 312 h; for pest or weed control at 15.625 g/ha: 15.625 g ai/ha, evaluated after 13 days (100=total damage to plant; 0=no damage to plant), read-out: Pigweed, Redroot damage rating; for pest or weed control at 62.5 g/ha: 62.5 g ai/ha, read-out: Pigweed, Redroot damage rating (100=total damage to plant; 0=no damage to plant); for pest or weed control at 62.5 g/ha / pest or weed control at 250 g/ha: evaluated after 13 days; for pest or weed control at 250 g/ha: 250 g ai/ha, read-out: damage to plant, Pigweed, Redroot (100=total damage to plant; 0=no damage to plant)
# Summary of the method: as §2
# [12] = test system: velvetleaf (Abutilon theophrasti); assay: Test G Post-Emergence Protocol; conditions: Abutilon theophrasti, post-emergence, 312 h; for pest or weed control at 15.625 g/ha: 15.625 g ai/ha, evaluated after 13 days (100=total damage to plant; 0=no damage to plant), read-out: Velvetleaf damage rating; for pest or weed control at 62.5 g/ha: 62.5 g ai/ha, read-out: Velvetleaf damage rating (100=total damage to plant; 0=no damage to plant); for pest or weed control at 62.5 g/ha / pest or weed control at 250 g/ha: evaluated after 13 days; for pest or weed control at 250 g/ha: 250 g ai/ha, read-out: damage to plant, Velvetleaf (100=total damage to plant; 0=no damage to plant)
# Summary of the method: as §2
Compound,pest or weed control at 15.625 g/ha [1] [%],pest or weed control at 62.5 g/ha [1] [%],pest or weed control at 250 g/ha [1] [%],plant injury at 15.625 g/ha (corn (Zea mays) [2]) [%],plant injury at 62.5 g/ha (corn (Zea mays) [2]) [%],plant injury at 250 g/ha (corn (Zea mays) [2]) [%],pest or weed control at 15.625 g/ha [3] [%],pest or weed control at 62.5 g/ha [3] [%],pest or weed control at 250 g/ha [3] [%],pest or weed control at 15.625 g/ha [4] [%],pest or weed control at 62.5 g/ha [4] [%],pest or weed control at 250 g/ha [4] [%],pest or weed control at 15.625 g/ha [5] [%],pest or weed control at 62.5 g/ha [5] [%],pest or weed control at 250 g/ha [5] [%],pest or weed control at 15.625 g/ha [6] [%],pest or weed control at 62.5 g/ha [6] [%],pest or weed control at 250 g/ha [6] [%],pest or weed control at 15.625 g/ha [7] [%],pest or weed control at 62.5 g/ha [7] [%],also measured
Cc1cc(NC(=O)[C@@H]2C(=O)N(C)C[C@H]2c2ccc(C(F)(F)F)cc2)ccc1F (racemic) [Compound 1593],0,0,20,0,0,0,0,10,70,0,0,0,0,0,0,0,0,0,0,0,pest or weed control at 250 g/ha [7]: 20%; plant injury at 15.625 g/ha (corn (Zea mays) [8]): 0%; plant injury at 62.5 g/ha (corn (Zea mays) [8]): 10%; plant injury at 250 g/ha (corn (Zea mays) [8]): 10%; pest or weed control at 15.625 g/ha [9]: 0%; pest or weed control at 62.5 g/ha [9]: 10%; pest or weed control at 250 g/ha [9]: 70%; pest or weed control at 15.625 g/ha [10]: 0%; pest or weed control at 62.5 g/ha [10]: 0%; pest or weed control at 250 g/ha [10]: 0%; pest or weed control at 15.625 g/ha [11]: 0%; pest or weed control at 62.5 g/ha [11]: 0%; pest or weed control at 250 g/ha [11]: 0%; pest or weed control at 15.625 g/ha [12]: 0%; pest or weed control at 62.5 g/ha [12]: 0%; pest or weed control at 250 g/ha [12]: 0%
Cc1ncc(NC(=O)[C@@H]2C(=O)N(C)C[C@H]2c2ccc(C(F)(F)F)cc2)s1 (racemic) [Compound 1595],0,0,0,0,0,0,0,0,0,0,0,0,0,0,0,0,0,0,10,10,pest or weed control at 250 g/ha [7]: 10%; plant injury at 15.625 g/ha (corn (Zea mays) [8]): 0%; plant injury at 62.5 g/ha (corn (Zea mays) [8]): 60%; plant injury at 250 g/ha (corn (Zea mays) [8]): 0%; pest or weed control at 15.625 g/ha [9]: 0%; pest or weed control at 62.5 g/ha [9]: 0%; pest or weed control at 250 g/ha [9]: 10%; pest or weed control at 15.625 g/ha [10]: 0%; pest or weed control at 62.5 g/ha [10]: 60%; pest or weed control at 250 g/ha [10]: 20%; pest or weed control at 15.625 g/ha [11]: 0%; pest or weed control at 62.5 g/ha [11]: 10%; pest or weed control at 250 g/ha [11]: 20%; pest or weed control at 15.625 g/ha [12]: 0%; pest or weed control at 62.5 g/ha [12]: 10%; pest or weed control at 250 g/ha [12]: 10%
COc1cccc(NC(=O)[C@@H]2C(=O)N(C)C[C@H]2c2ccc(C(F)(F)F)cc2)n1 (racemic) [Compound 1601],0,10,70,0,0,0,0,20,80,0,0,0,0,0,50,0,0,0,0,40,pest or weed control at 250 g/ha [7]: 70%; plant injury at 15.625 g/ha (corn (Zea mays) [8]): 0%; plant injury at 62.5 g/ha (corn (Zea mays) [8]): 10%; plant injury at 250 g/ha (corn (Zea mays) [8]): 30%; pest or weed control at 15.625 g/ha [9]: 0%; pest or weed control at 62.5 g/ha [9]: 80%; pest or weed control at 250 g/ha [9]: 70%; pest or weed control at 15.625 g/ha [10]: 0%; pest or weed control at 62.5 g/ha [10]: 10%; pest or weed control at 250 g/ha [10]: 30%; pest or weed control at 15.625 g/ha [11]: 0%; pest or weed control at 62.5 g/ha [11]: 10%; pest or weed control at 250 g/ha [11]: 30%; pest or weed control at 15.625 g/ha [12]: 0%; pest or weed control at 62.5 g/ha [12]: 20%; pest or weed control at 250 g/ha [12]: 50%
